19 compounds from patent US20080085893A1, “MATRIX METALLOPROTEASE INHIBITORS” (priority 2006, published 2008) can be followed below.

What all share (format): biochemical
Test [1] concerns the target T1, human MMP-2 (amino acids 1-660) (Homo sapiens, UniProt P08253).
T1 construct: human MMP-2 (amino acids 1-660); made in house
T1 sequence (P08253 110-660): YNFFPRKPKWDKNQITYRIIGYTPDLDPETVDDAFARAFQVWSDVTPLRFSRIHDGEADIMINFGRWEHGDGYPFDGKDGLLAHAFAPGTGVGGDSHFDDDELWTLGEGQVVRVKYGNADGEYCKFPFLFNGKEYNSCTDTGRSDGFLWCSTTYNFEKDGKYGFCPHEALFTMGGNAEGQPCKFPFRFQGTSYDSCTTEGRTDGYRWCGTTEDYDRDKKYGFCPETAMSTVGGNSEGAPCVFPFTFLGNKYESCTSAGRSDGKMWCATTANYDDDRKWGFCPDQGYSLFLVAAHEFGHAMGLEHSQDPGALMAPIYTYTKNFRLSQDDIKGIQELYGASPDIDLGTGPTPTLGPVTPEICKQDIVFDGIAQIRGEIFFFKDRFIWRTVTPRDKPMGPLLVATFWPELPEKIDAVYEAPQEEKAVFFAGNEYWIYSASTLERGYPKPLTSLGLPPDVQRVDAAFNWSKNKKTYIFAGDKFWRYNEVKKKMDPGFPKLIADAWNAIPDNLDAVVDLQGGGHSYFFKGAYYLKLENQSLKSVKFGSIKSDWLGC
In words: MMP dose response assay for determining IC50, MMP-2. The conditions noted are these: recombinant enzyme, fluorescent-quench substrate 100 nM; read-out: MMP-2. The procedure, abridged: (§1)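 Recombinant enzymes in 50 mM HEPES pH 7.4, 10 mM CaCl2, 0.05% Brij-35, at empirically set levels keeping activity linear, preincubated 1 h at room temperature with compound in triplicate. Fluorescence-quench peptide substrate (Eu/QSY7) added at 100 nM final. Background-subtracted signal expressed as percent of DMSO control for IC50.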

Test [2] concerns the target T2, human MMP-9 (amino acids 107-446) (Homo sapiens, UniProt P14780).
T2 construct: human MMP-9 (amino acids 107-446); made in house
The test is described as follows: MMP dose response assay for determining IC50, MMP-9. The note with it: recombinant enzyme, fluorescent-quench substrate 100 nM; read-out: MMP-9. In short, it runs like this: as §1

Test [3] deals with T3, human MMP-1 (amino acids 100-262) (Homo sapiens, UniProt P03956).
T3 construct: human MMP-1 (amino acids 100-262); made in house
T3 sequence (P03956 100-262): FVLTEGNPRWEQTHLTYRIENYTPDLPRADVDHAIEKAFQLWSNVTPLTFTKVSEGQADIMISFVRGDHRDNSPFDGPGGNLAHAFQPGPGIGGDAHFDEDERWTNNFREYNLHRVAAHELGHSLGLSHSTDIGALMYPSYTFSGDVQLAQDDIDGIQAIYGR
In words: MMP dose response assay for determining IC50, MMP-1. The conditions noted are these: recombinant catalytic domain, fluorescent-quench substrate 100 nM. The protocol:
MMP Dose Response Assay for Determining IC50
The following method was used for determining IC50 values of different inhibitor compounds against multiple MMP enzymes. Frozen stocks of recombinantly produced MMPs were prepared in assay buffer (50 mM HEPES pH 7.4, 10 mM CaCl2, 0.05% Brij-35). […] Enzyme concentrations in the assay were determined empirically and set such that proteolytic activity was maintained in a linear range over the time-course of the experiment. […] Each concentration for each test compound was tested in triplicate. MMP enzymes were equilibrated with compounds for 1 hour at room temperature, then a fluorescent-quench substrate (Acetyl-Cys(Eu)-Pro-Leu-Gly-Leu-Lys-(QSY7)-Ala-Arg-amide) was added to a final concentration of 100 nM. […] Data was analyzed by first calculating average background value from wells that contained only substrate, and this value was subtracted from the entire plate. The 100%, or maximum value, was determined by averaging control wells that contained enzyme, substrate and DMSO. For each well, the percent of control was calculated by dividing the well value by the average DMSO value obtained above.

“And” between values parts separate entries of the source, which are not always exact repeats. Equal values may be shown once.

T2 sequence (P14780 107-446): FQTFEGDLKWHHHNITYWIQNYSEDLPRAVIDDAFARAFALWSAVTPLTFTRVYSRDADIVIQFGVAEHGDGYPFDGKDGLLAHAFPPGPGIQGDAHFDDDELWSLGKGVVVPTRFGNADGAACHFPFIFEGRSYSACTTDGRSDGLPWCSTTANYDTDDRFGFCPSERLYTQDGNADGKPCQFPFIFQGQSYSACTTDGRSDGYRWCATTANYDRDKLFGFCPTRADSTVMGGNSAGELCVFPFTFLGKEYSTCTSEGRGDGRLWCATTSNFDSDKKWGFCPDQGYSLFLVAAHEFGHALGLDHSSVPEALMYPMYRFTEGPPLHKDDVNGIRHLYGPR

As to `Cc1ccc(Oc2ccc(N(C[C@H](C(=O)NO)N3CCOCC3)S(C)(=O)=O)cc2)cc1` [Example 28, N-Hydroxy (2R)-3-{N-[4-(4-methylphenoxy)phenyl],N-methanesulfonylamino}-2-(morpholin-4-yl)propionamide], the IC50 in test [1] is 1320 nM; in test [2] it was 295 nM; in test [3], over 10000 nM.
The corresponding values for `Cc1ccc(Oc2ccc(N(C[C@H](N)C(=O)NO)S(C)(=O)=O)cc2)cc1` [Example 29, N-Hydroxy (2S)-2-amino-3-{N-[4-(4-methylphenoxy)phenyl],N-methanesulfonylamino}propionamide] are 670 nM, 120 nM and over 10000 nM.
In the case of `Cc1ccc(Oc2ccc(N(C[C@H](O)C(=O)NO)S(=O)(=O)Cc3ccncc3)cc2)cc1` [Example 31, N-Hydroxy (2S)-2-hydroxy-3-{N-[4-(4-methylphenoxy)phenyl],N-(pryidin-4-yl)methylsulfonylamino}propionamide], the IC50 in test [1] was 344 nM; in test [2], 54.2 nM; in test [3], over 10000 nM.
Consider `Cc1ccc(Oc2ccc(N(C[C@H](O)C(=O)NO)S(=O)(=O)Cc3cccnc3)cc2)cc1` [Example 32, N-Hydroxy (2S)-2-hydroxy-3-{N-[4-(4-methylphenoxy)phenyl],N-(pryidin-3-yl)methylsulfonylamino}propionamide], for which the IC50 was 401 nM in test [1], 68.7 nM in test [2] and over 10000 nM in test [3].
Regarding `Cc1ccc(Oc2ccc(N(C[C@H](NCc3ccncc3)C(=O)NO)S(C)(=O)=O)cc2)cc1` [Example 33, N-Hydroxy (2S)-3-{N-[4-(4-methylphenoxy)phenyl],N-methanesulfonylamino}-2-(pyridine-4-yl)methylaminopropionamide], the IC50 in test [1] was 9.53 nM; in test [2], 1.77 nM; in test [3] it was over 10000 nM.
Regarding `Cc1ccc(Oc2ccc(N(C[C@H](NCc3ccccn3)C(=O)NO)S(C)(=O)=O)cc2)cc1` [Example 34, N-Hydroxy (2S)-3-{N-[4-(4-methylphenoxy)phenyl],N-methanesulfonylamino}-2-(pyridin2-yl)methylaminopropionamide], the IC50 in test [1] is 83.4 nM; in test [2], 22.9 nM; in test [3] it was over 10000 nM.
The corresponding values for `Cc1ccc(Oc2ccc(N(C[C@H](NCc3cccnc3)C(=O)NO)S(C)(=O)=O)cc2)cc1` [Example 35, N-Hydroxy (2S)-3-{N-[4-(4-methylphenoxy)phenyl],N-methanesulfonylamino}-2-(pyridine-3-yl)methylaminopropionamide] are 16.8 nM, 2.84 nM and over 10000 nM.
The matching figures for `Cc1ccc(Oc2ccc(N(C[C@H](NCC(C)C)C(=O)NO)S(C)(=O)=O)cc2)cc1` [Example 36, N-Hydroxy (2S)-3-{N-[4-(4-methylphenoxy)phenyl],N-methanesulfonylamino}-2-(2-methylpropyl)aminopropionamide]: 11.4 nM, 1.27 nM and 9220 nM.
The matching figures for `Cc1ccc(Oc2ccc(N(C[C@H](NC3CCCC3)C(=O)NO)S(C)(=O)=O)cc2)cc1` [Example 37, N-Hydroxy (2S)-2-cyclopentylamino-3-{N-[4-(4-methylphenoxy)phenyl],N-methanesulfonylamino}propionamide]: 9.98 nM, 1.69 nM and over 10000 nM.
As for `Cc1ccc(Oc2ccc(N(C[C@H](Nc3ccc(F)cc3)C(=O)NO)S(C)(=O)=O)cc2)cc1` [Example 38, N-Hydroxy (2S)-2-(4-fluorophenyl)amino-3-{N-[4-(4-methylphenoxy)phenyl],N-methanesulfonylamino}propionamide], the IC50 in test [1] is 64.4 nM; in test [2], 1.32 nM; in test [3] it was over 10000 nM.
Take `Cc1ccc(Oc2ccc(N(C[C@H](Nc3cccc(F)c3)C(=O)NO)S(C)(=O)=O)cc2)cc1` [Example 39, N-Hydroxy (2S)-2-(3-fluorophenyl)amino-3-{N-[4-(4-methylphenoxy)phenyl],N-methanesulfonylamino}propionamide]: the IC50 was 34.7 nM and 50.6 nM and 73.1 nM and 53 nM in test [1]; 0.46 nM and 1.18 nM and 1.68 nM and 0.25 nM in test [2]; over 10000 nM in test [3].
On to `Cc1ccc(Oc2ccc(N(C[C@H](Nc3ccc4[nH]ccc4c3)C(=O)NO)S(C)(=O)=O)cc2)cc1` [Example 40, N-Hydroxy (2S)-2-(indol-5-yl)amino-3-{N-[4-(4-methylphenoxy)phenyl],N-methanesulfonylamino}propionamide], for which the IC50 in test [1] was 30.8 nM and 14.7 nM; in test [2], 1 nM and 0.64 nM; in test [3], 6410 nM and 8830 nM.
Consider `Cc1ccc(Oc2ccc(N(C[C@H](Nc3ccc(F)c(F)c3)C(=O)NO)S(C)(=O)=O)cc2)cc1` [Example 41, N-Hydroxy (2S)-2-(3,4-difluorophenyl)amino-3-{N-[4-(4-methylphenoxy)phenyl],N-methanesulfonylamino}propionamide], for which the results for the IC50 in test [1], in test [2] and in test [3] were 127 nM, 2.56 nM and over 10000 nM, respectively.
Regarding `Cc1ccc(Oc2ccc(N(C[C@H](Nc3ccc(F)c(Cl)c3)C(=O)NO)S(C)(=O)=O)cc2)cc1` [Example 42, N-Hydroxy (2S)-2-(3-chloro-4-fluorophenyl)amino-3-{N-[4-(4-methylphenoxy)phenyl],N-methanesulfonylamino}propionamide], the IC50 is 431 nM in test [1], 19.9 nM in test [2] and over 10000 nM in test [3].
Regarding `Cc1ccc(Oc2ccc(N(C[C@H](Nc3ccc(Cl)cc3)C(=O)NO)S(C)(=O)=O)cc2)cc1` [Example 43, N-Hydroxy (2S)-2-(4-chlorophenyl)amino-3-{N-[4-(4-methylphenoxy)phenyl],N-methanesulfonylamino}propionamide], the IC50 in test [1] was 336 nM; in test [2], 22 nM; in test [3], over 10000 nM.
The corresponding values for `Cc1ccc(Oc2ccc(N(C[C@H](Nc3cccc(Cl)c3)C(=O)NO)S(C)(=O)=O)cc2)cc1` [Example 44, N-Hydroxy (2S)-2-(3-chlorophenyl)amino-3-{N-[4-(4-methylphenoxy)phenyl],N-methanesulfonylamino}propionamide] are 333 nM, 19.7 nM and over 10000 nM.
Turning to `Cc1ccc(Oc2ccc(N(C[C@H](Nc3cccc(C(F)(F)F)c3)C(=O)NO)S(C)(=O)=O)cc2)cc1` [Example 45, N-Hydroxy (2S)-3-{N-[4-(4-methylphenoxy)phenyl],N-methanesulfonylamino}-2-(3-trifluorormethylphenyl)aminopropionamide], the IC50 in test [1] stood at 682 nM; in test [2] it was 58.3 nM; in test [3], 6000 nM.
The matching figures for `Cc1ccc(Oc2ccc(N(C[C@H](N[C@H](C)c3ccccc3)C(=O)NO)S(C)(=O)=O)cc2)cc1` [Example 46, N-Hydroxy (2S)-3-{N-[4-(4-methylphenoxy)phenyl],N-methanesulfonylamino}-2-[(1R)-1-phenyl-1-ethyl]aminopropionamide]: 24.1 nM, 1.54 nM and over 10000 nM.
The matching figures for `Cc1ccc(Oc2ccc(N(C[C@H](N[C@@H](C)c3ccccc3)C(=O)NO)S(C)(=O)=O)cc2)cc1` [Example 47, N-Hydroxy (2S)-3-{N-[4-(4-methylphenoxy)phenyl],N-methanesulfonylamino}-2-[(1S)-1-phenyl-1-ethyl]aminopropionamide]: 11.7 nM, 0.54 nM and 6790 nM.
